These results are taken from ChEMBL document CHEMBL5506006, “Discovery of 2,9-diaryl-6-carbamoylpurines as a novel class of antitubercular agents” (Eur J Med Chem, 2024).

Each structure is given as a SMILES string. Values after ≈ are worked out from the molar mass of the structure shown. Active and inactive are the calls of the source. The calls are words filed in the database; no cut-off is given here.

Data set [1] relates to Mycobacterium tuberculosis. Briefly: Antituberculosis activity against Mycobacterium tuberculosis H37Rv. It counts as functional, organism-based.
A short description of data set [2]: Cytotoxicity against African green monkey Vero cells. It counts as toxicity, cell-based. As to conditions: African green monkey (Chlorocebus sabaeus).
Data set [3] in a line: Selectivity index, ratio of EC50 for african green monkey Vero cells to IC90 for Mycobacterium tuberculosis H37Rv. The class given is toxicity. To be noted: read-out: Selectivity Index.
Data set [4] relates to Mycobacterium tuberculosis. Briefly: Antimycobacterial activity against Mycobacterium tuberculosis H37Rv infected in C57BL/6 mouse assessed as reduction in lung bacterial burden at 25 mg/kg, po pre-infected for 24 hrs followed by compound addition for 6 days per week and measured on day 18 and 36. The class given is functional, organism-based. As to conditions: time 18-36 day.

Data set [5] in a line: Biodistribution in C57BL/6 mouse liver at 25 mg/kg, po administered as single dose and measured after 2 hrs by HPLC based UV-Visble detector method. The class given is ADME, organism-based. To be noted: read-out: Drug uptake.
The nature of data set [6]: Biodistribution in C57BL/6 mouse blood at 25 mg/kg, po administered as single dose and measured after 6 hrs by HPLC based UV-Visble detector method. It counts as ADME, organism-based. As to conditions: read-out: Drug uptake.
The test system of data set [7] is Mycobacterium tuberculosis. Briefly: Antituberculosis activity against Mycobacterium tuberculosis H37Rv infected in macrophage assessed as reduction in bacterial load at 10 times IC90 incubated for 3 days. The class given is functional, organism-based. To be noted: time 3.0 day.
Data set [8] has as its system Mycobacterium tuberculosis. Briefly: Antituberculosis activity against Mycobacterium tuberculosis H37Rv infected in macrophage assessed as reduction in bacterial load at 2 times IC90 incubated for 3 days. The class given is functional, organism-based. As to conditions: time 3.0 day.
Data set [9] can be described thus: Biodistribution in C57BL/6 mouse lung at 25 mg/kg, po administered as single dose and measured after 24 hrs by HPLC based UV-Visble detector method. The class given is ADME, organism-based. To be noted: read-out: Drug uptake.
A short description of data set [10]: Biodistribution in C57BL/6 mouse liver at 25 mg/kg, po administered as single dose and measured after 24 hrs by HPLC based UV-Visble detector method. It counts as ADME, organism-based. As to conditions: in vivo.
A short description of data set [11]: Biodistribution in C57BL/6 mouse liver at 25 mg/kg, po administered as single dose and measured after 6 hrs by HPLC based UV-Visble detector method. The class given is ADME, organism-based. As to conditions: read-out: Drug uptake.
The nature of data set [12]: Biodistribution in C57BL/6 mouse lung at 25 mg/kg, po administered as single dose and measured after 48 hrs by HPLC based UV-Visble detector method. It counts as ADME, organism-based. To be noted: read-out: Drug uptake.
Data set [13] has as its system BMDM. Briefly: Cytotoxicity against mouse BMDMs at 2 to 10 times MIC incubated for 24 hrs by MTS assay. It counts as toxicity, cell-based.
A short description of data set [14]: Biodistribution in C57BL/6 mouse blood at 25 mg/kg, po administered as single dose and measured after 2 hrs by HPLC based UV-Visble detector method. The class given is ADME, organism-based. As to conditions: read-out: Drug uptake.
The subject of data set [15] is Mycobacterium tuberculosis. As to the kind of experiment: Antimycobacterial activity against Mycobacterium tuberculosis H37Rv infected in C57BL/6 mouse assessed as reduction in liver bacterial burden at 25 mg/kg, po pre-infected for 24 hrs followed by compound addition for 6 days per week and measured on day 18. It counts as functional, organism-based. As to conditions: time 18.0 day.

The IC50 is the concentration at which inhibition is half-maximal. By IC90 is commonly meant the concentration at which the effect reaches the 90% level. As to `Cn1cnc2c(C(N)=O)nc(-c3ccccc3O)nc21`, in data set [1], the IC50 is above 100 µg/mL and the IC90 is above 100 µg/mL.
For `NC(=O)c1nc(-c2ccccc2O)nc2c1ncn2-c1ccccc1`, in [1], the IC50 is above 100 µg/mL and the IC90 is above 100 µg/mL.
For orientation: EC50 means the concentration at which the effect is half-maximal. As to `NC(=O)c1nc(-c2ccc(O)cc2)nc2c1ncn2-c1ccccc1`, in [1], the 50% inhibitory concentration (IC50) worked out at 0.7 µg/mL (≈ 2.11 µM) and it took 1.2 µg/mL (≈ 3.62 µM) to reach the 90% level (IC90). Also, in data set [2], the EC50 was above 30 µg/mL. In data set [3], the selectivity ratio was above 25.5.
Regarding `CCc1ccc(-c2nc(C(N)=O)c3ncn(-c4ccccc4)c3n2)cc1`, in data set [1], the IC50 was above 100 µg/mL and the IC90 is above 100 µg/mL.
For `NC(=O)c1nc(-c2ccc(O)cc2)nc2c1ncn2Cc1ccccc1`, in data set [1], the IC50 is above 100 µg/mL and the IC90 was above 100 µg/mL.
With `Cc1ccc(-n2cnc3c(C(N)=O)nc(-c4cccc(O)c4)nc32)cc1`, in data set [1], the IC50 is above 100 µg/mL and the IC90 was above 100 µg/mL.
As to `Cn1cnc2c(C(N)=O)nc(-c3cccc(O)c3)nc21`, in data set [1], the IC50 is above 100 µg/mL and the IC90 was above 100 µg/mL.
In the case of `NC(=O)c1nc(-c2ccc(C(F)(F)F)cc2)nc2c1ncn2-c1ccccc1`, in data set [1], the IC50 was above 100 µg/mL and the IC90 is above 100 µg/mL.
In data set [1], `NC(=O)c1nc(-c2ccc(N3CCOCC3)cc2)nc2c1ncn2-c1ccccc1` returned an IC50 above 100 µg/mL and an IC90 above 100 µg/mL.
As for `NC(=O)c1nc(-c2ccc(Oc3ccc(Cl)cc3)cc2)nc2c1ncn2-c1ccccc1`, in [1], the midpoint of inhibition, the IC50, lay at 2.69 µg/mL (≈ 6.09 µM) and it took 3.09 µg/mL (≈ 6.99 µM) to reach the 90% level (IC90). The EC50 in data set [2] came to 12.7 µg/mL (≈ 28.7 µM). The selectivity ratio in data set [3] was 4.11.
Take `COc1ccc2cc(-c3nc(C(N)=O)c4ncn(-c5ccccc5)c4n3)ccc2c1`: in data set [1], the IC50 is above 100 µg/mL and the IC90 is above 100 µg/mL.
In [1], `Cc1ccc(-n2cnc3c(C(N)=O)nc(-c4ccccc4O)nc32)cc1` came in with an IC50 above 100 µg/mL and an IC90 above 100 µg/mL.
With `COc1ccc(-c2nc(C(N)=O)c3ncn(-c4ccccc4)c3n2)cc1`, the IC50 in [1] was below 0.1 µg/mL. Further, in data set [1], the 90% effect concentration (IC90) was below 0.19 µg/mL. For the same molecule, the result in [4], in data set [7], in data set [8] and in data set [15] was Active. The concentration at 2 h in [5] was 4800 ng/g; in data set [14], 630 ng/g. The concentration at 6 h in data set [6] was 2160 ng/g; in data set [11], 1460 ng/g. In data set [2], this molecule gave an EC50 above 30 µg/mL. Besides, the concentration at 24 h in data set [9] worked out at 4030 ng/g. Moreover, the Drug uptake entry in [10] was “Not Active”. For the same molecule, the selectivity ratio in [3] is above 154. The concentration at 48 h in data set [12] came out at 1210 ng/g. In addition, in data set [13], the Activity entry is listed as “Non-Toxic”.
Turning to `Cn1cnc2c(C(N)=O)nc(-c3ccc(O)cc3)nc21`, in data set [1], inhibition was half-maximal at 25.8 µg/mL (≈ 95.8 µM) (IC50) and the IC90 was 47.8 µg/mL (≈ 178 µM).
In [1], `Cc1ccc(-n2cnc3c(C(N)=O)nc(-c4ccc(O)cc4)nc32)cc1` registered an IC50 of 19.2 µg/mL (≈ 55.6 µM) and an IC90 above 100 µg/mL.
Turning to `CN(C)c1ccc(-c2nc(C(N)=O)c3ncn(-c4ccccc4)c3n2)cc1`, in data set [1], 1.38 µg/mL (≈ 3.85 µM) corresponded to half-maximal inhibition (IC50) and the IC90 worked out at 1.67 µg/mL (≈ 4.66 µM). In [2], the 50% effective concentration (EC50) is above 40 µg/mL. The selectivity ratio in [3] is above 23.9.
For the molecule `NC(=O)c1nc(-c2ccc(OC(F)(F)F)cc2)nc2c1ncn2-c1ccccc1`, in data set [1], the IC50 is above 100 µg/mL and the IC90 was above 100 µg/mL.
In [1], `N#Cc1ccc(-n2cnc3c(C(N)=O)nc(-c4ccc(O)cc4)nc32)cc1` had an IC50 above 100 µg/mL and an IC90 above 100 µg/mL.
In [1], `COc1ccc(-c2nc(C(N)=O)c3ncn(-c4ccccc4)c3n2)c2ccccc12` showed an IC50 above 100 µg/mL and an IC90 above 100 µg/mL.
In the case of `COc1ccc(-n2cnc3c(C(N)=O)nc(-c4ccc(O)cc4)nc32)cc1`, in [1], the IC50 was above 100 µg/mL and the IC90 was above 100 µg/mL.
In data set [1], `NC(=O)c1nc(-c2cccc(O)c2)nc2c1ncn2-c1ccccc1` showed an IC50 above 100 µg/mL and an IC90 above 100 µg/mL.
In data set [1], `CCOc1ccc(-c2nc(C(N)=O)c3ncn(-c4ccccc4)c3n2)cc1` returned an IC50 of 1.44 µg/mL (≈ 4.01 µM) and an IC90 of 1.65 µg/mL (≈ 4.59 µM). In data set [2], this molecule had an EC50 of 12.9 µg/mL (≈ 35.9 µM). Besides, in data set [3], the selectivity ratio was 7.85.
In data set [1], `N#Cc1ccc(-n2cnc3c(C(N)=O)nc(-c4ccccc4O)nc32)cc1` returned an IC50 above 100 µg/mL and an IC90 above 100 µg/mL.
`COc1ccc(-n2cnc3c(C(N)=O)nc(-c4ccccc4O)nc32)cc1`: in [1], the IC50 is above 100 µg/mL and the IC90 is above 100 µg/mL.
With `COc1ccc(-n2cnc3c(C(N)=O)nc(-c4cccc(O)c4)nc32)cc1`, in data set [1], the IC50 is above 100 µg/mL and the IC90 was above 100 µg/mL.
`NC(=O)c1nc(-c2ccccc2O)nc2c1ncn2Cc1ccccc1`: in data set [1], the IC50 is above 100 µg/mL and the IC90 was above 100 µg/mL.
In [1], `CC(C)(C)Oc1ccc(-c2nc(C(N)=O)c3ncn(-c4ccccc4)c3n2)cc1` registered an IC50 above 100 µg/mL and a concentration for an effect of 90% (IC90) above 100 µg/mL.
As for `N#Cc1ccc(-n2cnc3c(C(N)=O)nc(-c4cccc(O)c4)nc32)cc1`, in data set [1], the IC50 came to 38.5 µg/mL (≈ 108 µM) and the IC90 was above 100 µg/mL.
